Data as given in patent US20200038513A1, “MODULATORS OF FAK PROTEOLYSIS AND ASSOCIATED METHODS OF USE” (ARVINAS OPERATIONS, INC., priority 2018, published 2020).
Read-outs that look alike come from different tables or passages of the source.

Legend:
[1] = Pharmacokinetics of intraperitoneal or intravenous injection in CD1 mice; assay type: in vivo; settings: for Conc. (ng/mL) Mouse 2 / Conc. (ng/mL) Mouse 1 / Conc. (ng/mL) Mouse 3 / concentration at 0.25 h / concentration at 0.5 h / concentration at 1 h / concentration at 2 h / concentration at 4 h / concentration at 8 h / concentration at 24 h / concentration at 0.033 h / concentration at 0.083 h: CD1 mice plasma; for concentration at 0.25 h / concentration at 0.5 h / concentration at 1 h / concentration at 2 h / concentration at 4 h / concentration at 8 h / concentration at 24 h / AUC(0-t) / half-life / concentration at 0.033 h / concentration at 0.083 h: male, CD1, mouse, plasma
Protocol: The pharmacokinetics of exemplary compounds 103, 107, 100, 101, and 102 was examined for intraperitoneal and intravenous administration. The desired serial concentrations of working solutions were achieved by diluting stock solution (1 mg/mL in DMSO) of analyte with methanol. In particular, 20 μL of working solutions (1, 2, 5, 10, 50, 100, 500, 1000, 2000 ng/mL) were added to 20 μL of the blank CD1 mice plasma to achieve calibration standards of 1-2000 ng/mL (1, 2, 5, 10, 50, 100, 500, 1000, 2000 ng/mL) in a total volume of 40 μL. Dose of IV and IP were diluted by 1000 fold and 10000 with methanol, 20 μL of the diluted dose solutions were added to 20 μL of the blank CD1 mice plasma to achieve dose samples. Next, 40 μL standards and 40 μL dose samples were added to 20 μL of IS (100 ng/mL) and 200 μL of acetonitrile for precipitating protein respectively. Then the samples were vortexed for 30 seconds. After centrifugation at 4 degree Celsius, 4000 rpm for 15 minutes, the supernatant was diluted 3 times with water. 10 μL of the diluted supernatant was injected into the LC/MS/MS system for quantitative analysis.
Exemplary compounds 103, 107, 100, 101, and 102 were administered intravenously (5 second injection of 10% HP-b-CD and 40 mM sodium acetate and 40 mM NaCl in water, pH4.5) or intraperitoneally (5% EtOH and 5% Solutol HS15 in D5W(ESD-2)) to 6-8 week old male CD1 mice (3 mice per treatment group for a total of 12 mice) at the time points indicated below in Table 7. The mice had free access to food and water.
Dorsal metatarsal vein samples (30 μL), except that the final sample was acquired via a heart puncture, were taken from the mice at the same the administration time points as shown in Table 7.

[2] = PPB; assay type: in vitro ADME; settings: plasma
[3] = ip, 10 mg/kg, IP 10 mg/kg, read-out: Conc. (ng/mL) Mouse 1
[4] = ip, 10 mg/kg, IP 10 mg/kg, read-out: Conc. (ng/mL) Mouse 2
[5] = ip, 10 mg/kg, IP 10 mg/kg, read-out: Conc. (ng/mL) Mouse 3
[6] = ip, 10 mg/kg, IP 10 mg/kg, read-out: Mean
[7] = iv, 1 mg/kg, IV 1.0 mg/kg, read-out: Conc. (ng/mL) Mouse 1
[8] = iv, 1 mg/kg, IV 1.0 mg/kg, read-out: Conc. (ng/mL) Mouse 2
[9] = iv, 1 mg/kg, IV 1.0 mg/kg, read-out: Conc. (ng/mL) Mouse 3
[10] = iv, 1 mg/kg, IV 1.0 mg/kg, read-out: Mean

Conc. (ng/mL) Mouse 2 ([1]; IP 10 mg/kg, 24 h): BLOQ
Conc. (ng/mL) Mouse 1 ([1]; IV 1.0 mg/kg, 8 h): BLOQ
Conc. (ng/mL) Mouse 2 ([1]; IV 1.0 mg/kg, 8 h): BLOQ
Conc. (ng/mL) Mouse 3 ([1]; IV 1.0 mg/kg, 8 h): BLOQ
Conc. (ng/mL) Mouse 1 ([1]; IV 1.0 mg/kg, 24 h): BLOQ
Conc. (ng/mL) Mouse 2 ([1]; IV 1.0 mg/kg, 24 h): BLOQ
Conc. (ng/mL) Mouse 3 ([1]; IV 1.0 mg/kg, 24 h): BLOQ
concentration at 0.25 h [1, 3]: 252 ng/mL
concentration at 0.25 h [1, 4]: 402 ng/mL
concentration at 0.25 h [1, 5]: 374 ng/mL
concentration at 0.25 h [1, 6]: 343 ng/mL
concentration at 0.5 h [1, 3]: 362 ng/mL
concentration at 0.5 h [1, 4]: 467 ng/mL
concentration at 0.5 h [1, 5]: 373 ng/mL
concentration at 0.5 h [1, 6]: 401 ng/mL
concentration at 1 h [1, 3]: 648 ng/mL
concentration at 1 h [1, 4]: 1550 ng/mL
concentration at 1 h [1, 5]: 2480 ng/mL
concentration at 1 h [1, 6]: 1560 ng/mL
concentration at 2 h [1, 3]: 764 ng/mL
concentration at 2 h [1, 4]: 1750 ng/mL
concentration at 2 h [1, 5]: 1610 ng/mL
concentration at 2 h [1, 6]: 1380 ng/mL
concentration at 4 h [1, 3]: 362 ng/mL
concentration at 4 h [1, 4]: 625 ng/mL
concentration at 4 h [1, 5]: 510 ng/mL
concentration at 4 h [1, 6]: 499 ng/mL
concentration at 8 h ([1]; ip, 10 mg/kg, IP 10 mg/kg, 8 h, read-out: Conc. (ng/mL) Mouse 1): 95.4 ng/mL
concentration at 8 h ([1]; ip, 10 mg/kg, IP 10 mg/kg, 8 h, read-out: Conc. (ng/mL) Mouse 2): 111 ng/mL
concentration at 8 h ([1]; ip, 10 mg/kg, IP 10 mg/kg, 8 h, read-out: Conc. (ng/mL) Mouse 3): 151 ng/mL
concentration at 8 h ([1]; ip, 10 mg/kg, IP 10 mg/kg, 8 h, read-out: Mean): 119 ng/mL
concentration at 24 h ([1]; ip, 10 mg/kg, IP 10 mg/kg, 24 h, read-out: Conc. (ng/mL) Mouse 1): 1.35 ng/mL
concentration at 24 h ([1]; ip, 10 mg/kg, IP 10 mg/kg, 24 h, read-out: Conc. (ng/mL) Mouse 3): 1.56 ng/mL
concentration at 24 h ([1]; ip, 10 mg/kg, IP 10 mg/kg, 24 h, read-out: Mean): 1.46 ng/mL
AUC(0-t) ([1]; ip, 10 mg/kg, read-out: AUClast (h * ng/mL) IP): 5870 ng·h/mL
half-life ([1]; ip, 10 mg/kg, read-out: T ½ (h) IP (converted)): 2.15 h
concentration at 0.033 h [1, 7]: 1320 ng/mL
concentration at 0.033 h [1, 8]: 1390 ng/mL
concentration at 0.033 h [1, 9]: 1150 ng/mL
concentration at 0.033 h [1, 10]: 1290 ng/mL
concentration at 0.083 h [1, 7]: 233 ng/mL
concentration at 0.083 h [1, 8]: 313 ng/mL
concentration at 0.083 h [1, 9]: 205 ng/mL
concentration at 0.083 h [1, 10]: 250 ng/mL
concentration at 0.25 h [1, 7]: 34.7 ng/mL
concentration at 0.25 h [1, 8]: 48.2 ng/mL
concentration at 0.25 h [1, 9]: 36.4 ng/mL
concentration at 0.25 h [1, 10]: 39.8 ng/mL
concentration at 0.5 h [1, 7]: 17.4 ng/mL
concentration at 0.5 h [1, 8]: 27.1 ng/mL
concentration at 0.5 h [1, 9]: 18 ng/mL
concentration at 0.5 h [1, 10]: 20.8 ng/mL
concentration at 1 h [1, 7]: 6.22 ng/mL
concentration at 1 h [1, 8]: 9.77 ng/mL
concentration at 1 h [1, 9]: 8.79 ng/mL
concentration at 1 h [1, 10]: 8.26 ng/mL
concentration at 2 h [1, 7]: 3.27 ng/mL
concentration at 2 h [1, 8]: 5.86 ng/mL
concentration at 2 h [1, 9]: 3.98 ng/mL
concentration at 2 h [1, 10]: 4.37 ng/mL
concentration at 4 h [1, 7]: 1.84 ng/mL
concentration at 4 h [1, 8]: 4.11 ng/mL
concentration at 4 h [1, 9]: 2.13 ng/mL
concentration at 4 h [1, 10]: 2.69 ng/mL
AUC(0-t) ([1]; iv, 1 mg/kg, read-out: AUClast (h * ng/mL) IV): 175 ng·h/mL
half-life ([1]; iv, 1 mg/kg, read-out: T ½ (h) IV (converted)): 1.95 h
fraction unbound [2]: 0.008
Structure (SMILES): Cc1ncsc1-c1ccc(CNC(=O)[C@@H]2C[C@@H](O)CN2C(=O)[C@@H](NC(=O)COCCOc2ccc(Nc3ncc(C(F)(F)F)c(NCc4cccc(N(C)S(C)(=O)=O)c4)n3)cc2)C(C)(C)C)cc1 [Compound 100, (2S,4R)-1-((S)-3,3-dimethyl-2-(2-(2-(4-((4-((3-(N-methylmethylsulfonamido)benzyl)amino)-5-(trifluoromethyl)pyrimidin-2-yl)amino)phenoxy)ethoxy)acetamido)butanoyl)-4-hydroxy-N-(4-(4-methylthiazol-5-yl)benzyl)pyrrolidine-2-carboxamide]
